Active and inactive are the calls of the source. For most assays here, no stated cut-off is given here; in the data, actives have a measured EC50 and inactives only a lower limit.
biological target: T1, Zinc finger protein mex-5 (Caenorhabditis elegans, UniProt Q9XUB2); test: MEX-5/TCR-2 RNA interaction inhibitors, dose response, biochemical, C. elegans, fluorescence polarization (AID 1960); details: not given
T1 sequence (Q9XUB2 whole entry): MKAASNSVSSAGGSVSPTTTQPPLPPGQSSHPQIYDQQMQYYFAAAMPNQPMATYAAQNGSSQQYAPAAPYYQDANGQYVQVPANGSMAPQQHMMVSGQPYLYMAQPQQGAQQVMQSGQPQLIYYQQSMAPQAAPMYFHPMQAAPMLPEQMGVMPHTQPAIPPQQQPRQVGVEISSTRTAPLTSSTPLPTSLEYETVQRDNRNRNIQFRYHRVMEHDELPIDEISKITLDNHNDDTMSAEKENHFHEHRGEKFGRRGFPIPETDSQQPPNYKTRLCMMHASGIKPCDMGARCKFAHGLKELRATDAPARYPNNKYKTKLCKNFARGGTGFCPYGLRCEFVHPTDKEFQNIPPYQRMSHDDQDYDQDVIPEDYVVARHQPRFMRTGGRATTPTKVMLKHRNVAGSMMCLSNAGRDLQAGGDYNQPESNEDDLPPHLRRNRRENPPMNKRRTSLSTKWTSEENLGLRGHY

Compound | EC50
CCN1CCN(Cc2c(O)ccc3c2O/C(=C\c2ccccc2)C3=O)CC1 | 57.9 µM (active)
COc1cc(/C=C2/N=C(c3ccccc3)OC2=O)c(F)cc1OCc1ccccc1 | > 300 µM (inconclusive)
COC(=O)c1ccc(-n2c(C)cc(C(=O)COC(=O)CC3Sc4ccccc4NC3=O)c2C)cc1 (centres undefined) | > 300 µM (not active)
CCOc1ccc(Br)cc1S(=O)(=O)NC(=O)c1ccccc1 | > 300 µM (not active)
Cc1cc(C(=O)N/N=C/c2ccc(-c3cccc(Cl)c3Cl)o2)[nH]n1 | 10.2 µM (active)

tested on: not listed separately; test: cytotoxicity toward NIH3T3 fibroblasts, dose response, counter-screen, cell-based, ATP luminescence, mouse fibroblasts (AID 2010); format: functional; details: not given;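 further: cells exposed to compound for about 90 hours before reading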

Compound | EC50
Cc1cc(C)c(OCCN(C)Cc2ccccc2)c(Br)c1 | > 60 µM (not active)

biological target: T2, Corticotropin-releasing factor receptor 2/Corticotropin-releasing factor-binding protein (Homo sapiens, UniProt P24387+Q13324); test: activators of CRF receptor 2 with binding protein – uHTS hits, confirmation (AID 602473); format: functional; details: read-out: EC50_Mean
T2 sequence (Q13324 whole entry): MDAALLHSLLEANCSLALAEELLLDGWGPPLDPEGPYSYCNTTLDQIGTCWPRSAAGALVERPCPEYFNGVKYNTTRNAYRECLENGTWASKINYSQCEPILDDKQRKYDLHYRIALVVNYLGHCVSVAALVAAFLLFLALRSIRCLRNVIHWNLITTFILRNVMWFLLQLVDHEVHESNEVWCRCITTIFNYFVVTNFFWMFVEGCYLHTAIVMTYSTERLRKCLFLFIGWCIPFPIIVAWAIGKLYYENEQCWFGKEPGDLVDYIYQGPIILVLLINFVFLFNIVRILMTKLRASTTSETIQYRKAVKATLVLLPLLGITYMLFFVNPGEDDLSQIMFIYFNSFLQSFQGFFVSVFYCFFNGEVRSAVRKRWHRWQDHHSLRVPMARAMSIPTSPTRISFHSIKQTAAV
T2 sequence (P24387 whole entry): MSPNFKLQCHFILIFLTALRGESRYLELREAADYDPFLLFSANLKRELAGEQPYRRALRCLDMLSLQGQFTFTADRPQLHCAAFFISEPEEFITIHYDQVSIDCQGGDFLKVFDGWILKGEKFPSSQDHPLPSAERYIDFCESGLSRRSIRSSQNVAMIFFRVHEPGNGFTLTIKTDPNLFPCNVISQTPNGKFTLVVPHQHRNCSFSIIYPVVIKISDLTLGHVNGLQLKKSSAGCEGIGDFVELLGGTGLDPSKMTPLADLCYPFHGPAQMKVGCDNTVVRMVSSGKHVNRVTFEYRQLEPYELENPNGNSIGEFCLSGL

Compound | EC50
O=C(Nc1ccccc1Oc1cccnc1)C1CCCN(Cc2ccccc2O)C1 (centres undefined) | > 53 µM (inactive)
Cc1ccn2cc(CSc3ccccc3N)nc2c1 | > 53 µM (inactive)
CCN(CC)S(=O)(=O)c1cc(OC)c(C)cc1C | > 53 µM (inactive)
O=C(CNC(=O)C1CCCCC1)Nc1ccc(F)c(Cl)c1 | > 53 µM (inactive)
Cc1cc(C)c(OCCN(C)Cc2ccccc2)c(Br)c1 | > 53 µM (inactive)
CCOc1ccc(-c2nc(N)ncc2Oc2cccc(OC)c2)c(O)c1 | > 53 µM (inactive)
Cc1ccc(S(=O)(=O)N2CCOCC2)cc1C(=O)NC1CCN(Cc2ccccc2)CC1 | > 53 µM (inactive)
COc1ccc(/C=N/NC(=O)c2ccccc2NC(=O)c2ccco2)c(OC)c1 | > 53 µM (inactive)
COc1ccc(/C=N/OCC(=O)N=Nc2c(O)[nH]c3ccc(Br)cc23)cc1 | > 53 µM (inactive)

tested on: not listed separately; test: Luminescence Cell-Based Dose Response HTS to Identify Inhibitors of 5'UTR Stem-Loop Driven Prion Protein mRNA Translation in H4 Neuroglioblastoma Cells. [Related pubchem assays: 1827 (Project Summary), 1813 (Primary HTS)]; format: functional; details: not given

Compound | EC50
CCOc1ccc(-c2nc(N)ncc2Oc2cccc(OC)c2)c(O)c1 | 16.4 µM (active)

tested on: H4; test: Luminescence Cell-Based Dose Response HTS to Identify Activators of 5'UTR Stem-Loop Driven Prion Protein mRNA Translation in H4 Neuroglioblastoma Cells. [Related pubchem assays: 1829 (Project Summary), 1814 (Primary HTS)]; format: functional; details: Homo sapiens

Compound | EC50
Brc1ccc2oc(-c3cc[nH]n3)cc2c1 | 93.8 µM (active)

biological target: T3, Heat shock factor protein 1 (Mus musculus, UniProt P38532); test: HSF1 potentiators in luciferase reporter cells, confirmation, cell-based, NIH3T3, luminescence, dose retest (AID 435004); format: functional; details: not given;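 further: stress induced by proteasome inhibitor MG132 added 30 min after compound; luciferase reporter driven by HSF1 response element in NIH3T3 cells; actives raise luminescence as potentiators of the MG132 stress response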
T3 sequence (P38532 whole entry): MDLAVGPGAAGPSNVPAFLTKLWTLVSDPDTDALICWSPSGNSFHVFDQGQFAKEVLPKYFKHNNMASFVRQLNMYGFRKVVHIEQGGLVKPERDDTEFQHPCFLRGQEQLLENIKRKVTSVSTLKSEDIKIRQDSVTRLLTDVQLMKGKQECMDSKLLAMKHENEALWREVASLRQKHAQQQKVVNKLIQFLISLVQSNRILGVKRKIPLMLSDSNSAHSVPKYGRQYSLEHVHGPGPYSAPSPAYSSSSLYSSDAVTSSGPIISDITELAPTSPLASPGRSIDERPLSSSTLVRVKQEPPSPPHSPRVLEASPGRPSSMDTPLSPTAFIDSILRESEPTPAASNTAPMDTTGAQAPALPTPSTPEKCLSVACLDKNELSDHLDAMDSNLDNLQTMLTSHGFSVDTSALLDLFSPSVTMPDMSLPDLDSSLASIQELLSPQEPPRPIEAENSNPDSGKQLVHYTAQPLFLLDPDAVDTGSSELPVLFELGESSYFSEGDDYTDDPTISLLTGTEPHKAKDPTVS

Compound | EC50
CCC(C)NC(=O)c1nc(O)c2nnn(Cc3ccccc3Cl)c2n1 (centres undefined) | > 260 µM (inactive)
O=c1oc2ccccc2c(NC2CCCCC2)c1NS(=O)(=O)c1ccc(Cl)cc1 | 120 µM (active)
Cc1ccc(O)c(NC(=O)Cc2ccc3ccccc3c2)c1 | 7.7 µM (active)
Sc1nc(-c2ccc(Br)cc2)cn1CCc1ccccc1 | > 260 µM (inactive)
CCCCc1ccc(NS(=O)(=O)c2c(C)n(C)c(=O)n(C)c2=O)cc1 | > 260 µM (inactive)
CCCCCCC1CCC(C(=O)NC(CCSC)C(=O)NC(C(=O)OC)C(C)C)CC1 (centres undefined) | > 260 µM (inactive)
N#CCCn1cc(C=C(C#N)C#N)c(-c2ccc(-c3ccccc3)cc2)n1 | 7.51 µM (active)
COc1cc(CC(=O)N(c2ccccc2)c2nc(C)cs2)cc(OC)c1OC | > 260 µM (inactive)
O=c1/c(=C/c2ccccc2)sc2nnc(-c3cccs3)n12 | 23.3 µM (active)

tested on: not listed separately; test: Luminescence Cell-Based Dose Response HTS to Identify Activators of Luciferase Translation or Activity in H4 […] Cells. [Related pubchem assays: 1829 (Project Summary), 1814 (Primary HTS)]; format: functional; details: not given

Compound | EC50
Brc1ccc2oc(-c3cc[nH]n3)cc2c1 | 0.281 µM (active)

tested on: not listed separately; test: inhibitors of SNCA 5'UTR-driven reporter translation, confirmation, H4 neuroglioma cells, luminescence (AID 1988); format: functional, cell-based; details: not given

Compound | EC50
CCOc1ccc(-c2nc(N)ncc2Oc2cccc(OC)c2)c(O)c1 | > 60 µM (not active)

tested on: not listed separately; test: inhibitors of intracellular T. cruzi replication, confirmation, NIH3T3 host cells, beta-gal luminescence (AID 2044); format: functional, cell-based; details: not given;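 further: intracellular parasites grown in NIH/3T3 mouse fibroblasts as host cells; luminescent beta-galactosidase reporter signal from transgenic T. cruzi replicating inside host cells; inhibitors lower the luminescence signal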

Compound | EC50
Cc1cc(C)c(OCCN(C)Cc2ccccc2)c(Br)c1 | 1.68 µM (active)

tested on: not listed separately; test: inhibitors of firefly luciferase expression or activity, dose response, H4 neuroglioma cells, luminescence (AID 1990); format: functional, cell-based; details: not given

Compound | EC50
CCOc1ccc(-c2nc(N)ncc2Oc2cccc(OC)c2)c(O)c1 | > 120 µM (not active)

biological target: T4, RNA-binding protein pos-1 (Caenorhabditis elegans, UniProt G5EF15); test: inhibitors of POS-1/mex-3 RNA binding, dose response, biochemical, fluorescence polarization (AID 1964); details: not given;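 further: purified POS-1 fused to maltose binding protein made in E. coli; potency of compounds blocking POS-1 binding to fluorescent RNA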
T4 sequence (G5EF15 whole entry): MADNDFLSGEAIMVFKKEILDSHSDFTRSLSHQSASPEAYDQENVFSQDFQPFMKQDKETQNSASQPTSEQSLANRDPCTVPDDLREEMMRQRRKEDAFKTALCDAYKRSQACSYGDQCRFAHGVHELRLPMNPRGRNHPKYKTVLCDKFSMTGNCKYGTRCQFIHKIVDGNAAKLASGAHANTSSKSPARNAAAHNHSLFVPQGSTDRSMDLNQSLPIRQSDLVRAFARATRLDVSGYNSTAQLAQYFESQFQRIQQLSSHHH

Compound | EC50
CCN1CCN(Cc2c(O)ccc3c2O/C(=C\c2ccccc2)C3=O)CC1 | 30.3 µM (active)
COc1cc(/C=C2/N=C(c3ccccc3)OC2=O)c(F)cc1OCc1ccccc1 | > 300 µM (not active)
COC(=O)c1ccc(-n2c(C)cc(C(=O)COC(=O)CC3Sc4ccccc4NC3=O)c2C)cc1 (centres undefined) | > 300 µM (not active)
CCOc1ccc(Br)cc1S(=O)(=O)NC(=O)c1ccccc1 | > 300 µM (not active)
Cc1cc(C(=O)N/N=C/c2ccc(-c3cccc(Cl)c3Cl)o2)[nH]n1 | 28.3 µM (active)

biological target: T2, Corticotropin-releasing factor receptor 2/Corticotropin-releasing factor-binding protein; test: Dose Response confirmation of uHTS hits for small molecule antagonists of the CRF-binding protein and CRF-R2 receptor complex.; format: functional; details: read-out: IC50_Mean

Compound | IC50
O=C(Nc1ccccc1Oc1cccnc1)C1CCCN(Cc2ccccc2O)C1 (centres undefined) | > 47.1 µM (inactive)
Cc1ccn2cc(CSc3ccccc3N)nc2c1 | > 47.1 µM (inactive)
CCN(CC)S(=O)(=O)c1cc(OC)c(C)cc1C | > 47.1 µM (inactive)
O=C(CNC(=O)C1CCCCC1)Nc1ccc(F)c(Cl)c1 | > 47.1 µM (inactive)
Cc1cc(C)c(OCCN(C)Cc2ccccc2)c(Br)c1 | > 47.1 µM (inactive)
CCOc1ccc(-c2nc(N)ncc2Oc2cccc(OC)c2)c(O)c1 | > 47.1 µM (inactive)
Cc1ccc(S(=O)(=O)N2CCOCC2)cc1C(=O)NC1CCN(Cc2ccccc2)CC1 | > 47.1 µM (inactive)
COc1ccc(/C=N/NC(=O)c2ccccc2NC(=O)c2ccco2)c(OC)c1 | > 47.1 µM (inactive)
COc1ccc(/C=N/OCC(=O)N=Nc2c(O)[nH]c3ccc(Br)cc23)cc1 | 5.15 µM (active)

biological target: T5, Protein skinhead-1 (Caenorhabditis elegans, UniProt P34707); format: functional; details: not given
T5 sequence (P34707 whole entry): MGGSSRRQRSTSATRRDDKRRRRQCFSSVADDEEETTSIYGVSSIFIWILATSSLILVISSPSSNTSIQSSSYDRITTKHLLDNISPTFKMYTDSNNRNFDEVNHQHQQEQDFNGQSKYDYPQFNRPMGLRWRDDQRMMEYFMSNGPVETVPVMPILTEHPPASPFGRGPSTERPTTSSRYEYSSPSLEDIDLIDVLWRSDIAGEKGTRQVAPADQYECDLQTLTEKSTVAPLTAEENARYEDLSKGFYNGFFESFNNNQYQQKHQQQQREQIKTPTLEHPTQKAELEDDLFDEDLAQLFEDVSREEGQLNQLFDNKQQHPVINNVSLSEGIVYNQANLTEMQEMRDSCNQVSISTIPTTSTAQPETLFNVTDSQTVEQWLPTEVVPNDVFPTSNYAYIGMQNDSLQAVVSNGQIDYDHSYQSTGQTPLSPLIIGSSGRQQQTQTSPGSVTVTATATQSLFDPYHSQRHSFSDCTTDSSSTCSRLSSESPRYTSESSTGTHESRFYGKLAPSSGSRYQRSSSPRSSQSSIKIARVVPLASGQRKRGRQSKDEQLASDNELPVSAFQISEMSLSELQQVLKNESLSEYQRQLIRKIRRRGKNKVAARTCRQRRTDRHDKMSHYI

Compound | IC50
O=S(=O)(Cc1cc(Sc2ccccc2)nc(-c2ccccc2)n1)c1ccccc1 | > 100 µM (inactive)
O=C(Nc1nc(-c2ccc(Cl)s2)cs1)c1ccco1 | 13.7 µM (active)
Fc1ccccc1OCCSc1nc2ccccc2o1 | 36.3 µM (active)
Brc1ccc2oc(-c3cc[nH]n3)cc2c1 | 80 µM (inactive)
CCOc1ccc(-c2nc(N)ncc2Oc2cccc(OC)c2)c(O)c1 | > 100 µM (inactive)
Cc1nc2nc(C)c(CCC(=O)N3CCN(c4ccccc4)CC3)c(C)n2n1 | > 100 µM (inactive)
COC(=O)c1ccc(C#Cc2ccccc2)o1 | > 100 µM (inactive)
CN1CCN(C(=O)c2ccccc2N(Cc2ccccc2)S(C)(=O)=O)CC1 | > 100 µM (inactive)
O=[N+]([O-])c1ccc(Nc2ccc(Cl)cc2)nc1 | > 100 µM (inactive)
O=C(CC1Sc2ccccc2NC1=O)NNc1cc(Cl)ccc1Cl (centres undefined) | > 100 µM (inactive)

— ChEMBL document CHEMBL1201862, “PubChem BioAssay data set” (2004)
